Test [1] concerns the target T1, ClpP1P2 complex in Mtb (Mycobacterium tuberculosis, UniProt P9WPC5). Briefly: ClpP1P2 peptidase activity assay, dose-response and IC50 determination. Format: biochemical. As to the method: (§1) ClpP1P2 complex in Mtb can catalyze the hydrolysis of small peptides. Following previous protocols, we measure the in vitro inhibition of ClpP peptidase activity by monitoring the cleavage of fluorogenic peptide Ac-Pro-Lys-Met-AMC[65]–[67].
(§2) The solution is pre-incubated at room temperature for 2 hours. Then, 20 μL substrate buffer with Ac-Pro-Lys-Met-AMC is added (final concentration of Ac-Pro-Lys-Met-AMC is 10 μM; reaction buffer is the same with the above). Fluorescence (Ex/Em: 380/ 440 nm) is recorded for 120 min at 37 °C.
To determine IC50, candidate inhibitors are assayed at 9 or 10 gradient concentrations. […] IC50 is determined by the change of recorded fluorescence (as RFU) and gradient dilution of inhibitors concentration. Non-linear fit (log(inhibitor) vs. normalized response) is used for IC50 curve fitting.

Test [2] deals with T1, ClpP1P2 complex in Mtb. Briefly: ClpP1P2 peptidase activity assay, single-dose response. The format is biochemical. The note with it: read-out: Inhibition rate relative to Bortezomib. As to the method: as §1, §2
Where [3] appears, read: source data Figure4b, screening hits.
Setting [4] is: source data Figure4b, synthesized compounds.

The term IC50 denotes the concentration that inhibits the measured activity by half. One may read the inhibition as the percentage by which the read-out fell short of the control.

T1 sequence (P9WPC5 whole entry, looked up, one chain of several): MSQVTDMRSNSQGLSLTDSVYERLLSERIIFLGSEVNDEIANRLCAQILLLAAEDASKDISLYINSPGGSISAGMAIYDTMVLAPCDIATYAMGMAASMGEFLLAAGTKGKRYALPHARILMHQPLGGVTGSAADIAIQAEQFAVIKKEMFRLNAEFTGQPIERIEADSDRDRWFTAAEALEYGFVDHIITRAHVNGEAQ

The compound `O=C(Nc1ccc(F)cc1)Nc1ccc(Br)c(C(F)(F)F)c1` [Analog-001] came in with an IC50 in test [1] (setting [3]) of 17.2 µM.
Consider `O=C(Nc1ccccc1F)Nc1ccccc1NC(=O)c1ccccc1Cl` [Analog-002], for which the IC50 in test [1] (setting [3]) came out at 19.9 µM.
As for `NS(=O)(=O)c1ccc(NC(=O)Nc2cc(Cl)cc(Cl)c2)cc1` [Analog-003], the inhibition at 20 µM in test [2] came to 48%. This compound also showed an IC50 in test [1] (setting [3]) of 10.1 µM.
In test [1] (setting [3]), `Oc1c(Cc2ccccc2)ccc2ccccc12` [Analog-004] had an IC50 of 19.6 µM.
For the compound `CN(C)S(=O)(=O)c1ccc(C(=O)N2C(=O)c3cccc(N)c3C2=O)cc1` [Analog-005], the IC50 in test [1] (Mtb ClpP, dose-response assay, Fig. 4b and text) is 1.9 µM; in test [1] (setting [3]), 1.88 µM.
In the case of `NS(=O)(=O)c1ccc(NC(=O)Nc2ccc(Cl)c(C(F)(F)F)c2)cc1` [Syn-A003-01], the IC50 in test [1] (setting [4]) worked out at 20.3 µM.
The compound `Cc1ccc(C(=O)N2C(=O)c3ccccc3C2=O)cc1` [Syn-A005-01] came in with an IC50 in test [1] (setting [4]) of 5.34 µM.
Still for that read-out and setting: the result for `CN(C)S(=O)(=O)c1ccc(C(=O)N2C(=O)c3ccccc3C2=O)cc1` [Syn-A005-02] reads 3.4 µM.

The record behind these values is article PMC11522292, “TamGen: drug design with target-aware molecule generation through a chemical language model” (Nature Communications, 2024).
